Test results from patent US20180110785A1, “METHODS AND COMPOSITIONS FOR AMELIORATING SYMPTOMS ASSOCIATED WITH CHROMOSOMAL ABNORMALITIES” (priority 2014, published 2018).
Where “and” joins values, the source holds several entries; their conditions need not be identical. Equal values may be shown once. Entries after “also recorded” stand apart in the source; their conditions may differ. Read-outs that look alike come from different tables or passages of the source.

Legend:
[1] = system: Ts65Dn mice; settings: cited from earlier work
[2] = in vivo; cited from earlier work
[3] = system: Ts65Dn mice; settings: SAG-treated mice, first 4 months of life; cited from earlier work
[4] = system: Schaffer collateral-CA1 synapses of Ts65Dn mice; settings: cited from earlier work
[5] = system: Ts65Dn mice; settings: TsSAG vs EuVeh and TsVeh; cited from earlier work
[6] = system: primary GCP cultures; settings: compared with Shh-Np; cited from earlier work
[7] = system: Ts65Dn mice; settings: SAG and BrdU co-injected at P0; cited from earlier work
[8] = system: Ts65Dn mice; settings: cited from earlier work; remark: listed apart in the source
[9] = system: Schaffer collateral-CA1 synapses of Ts65Dn mice; settings: cited from earlier work; for TBS-induced LTP, fEPSP: hippocampal slices from TsSAG mice
[10] = system: Ts65Dn mice; set-up: cerebellar cross-sectional area at the midline and GC density: dose or concentration left out as unconfirmed; settings: cited from earlier work
[11] = system: cerebellar Purkinje cells of Ts65Dn and euploid mice; settings: cited from earlier work
[12] = system: Sonic hedgehog (Shh) in parotid saliva; experiment: Saliva sonic hedgehog in patients with taste dysfunction after oral theophylline (Example 3), ELISA; format: in vivo, human
[13] = system: Sonic hedgehog (SHH) in nasal mucus; experiment: Sonic hedgehog in nasal mucus of hyposmic patients after oral theophylline, spectrophotometric ELISA; format: in vivo, human
[14] = system: patients with taste dysfunction; experiment: Gustometry (DT, RT, ME for four tastants) before and after theophylline (Example 3)
[15] = system: patients with smell loss (hyposmia); experiment: Smell function (olfactometry, subjective) in hyposmic patients after oral theophylline; format: in vivo, human
[16] = system: patients with smell loss (hyposmia); settings: prior hyposmic patients treated with oral theophylline (earlier studies); cited from earlier work
[17] = system: Sonic hedgehog (Shh) in parotid saliva; experiment: Sonic hedgehog in parotid saliva of patients with taste dysfunction after oral theophylline (Example 2), ELISA; format: in vivo, human; settings: for saliva sonic hedgehog after treatment with oral theophylline: mean ± SEM
[18] = system: patients with taste dysfunction; experiment: Subjective taste acuity and flavor perception in hypogeusic patients after oral theophylline (Example 2); format: in vivo, human; settings: for flavor perception, degree of improvement / taste acuity, degree of improvement: mean ± SEM
Description: Shh was measured in parotid saliva of both normal subjects and in patients with taste dysfunction of multiple etiologies by use of a sensitive spectrophotometric ELISA assay. Taste dysfunction was defined clinically by both subjective changes of taste acuity and flavor perception and by impaired gustometry. Patients were treated with oral theophylline 200-800 mg daily for 2-10 months with saliva Shh and taste function measured at intervals of 2-8 months.
Subjective statements of taste acuity loss and loss of flavor perception were quantitated by use of a scale from 0-100 with 100 reflecting total loss of taste acuity or flavor perception, 0 reflecting no loss and a number between 0-100 reflecting appropriate degree of loss. […] Mean±SEM of loss degree was measured among all patients and each pathology initiating taste dysfunction.
Saliva Shh and measurements of taste function by use of subjective responses of acuity and flavor perception and in olfactometry was measured at intervals of 2-6 months in these patients.

[19] = system: ShhN (sonic hedgehog) in nasal mucus; experiment: ShhN nasal mucus vs PDE inhibitor comparison (Example 10); format: in vivo, human
[20] = hippocampal slices from Ts65Dn mice
[21] = patients with taste dysfunction
[22] = theophylline treated (81), mean ± SEM

## CNC1CCC(N(Cc2cccc(-c3ccncc3)c2)C(=O)c2sc3ccccc3c2Cl)CC1 (stereo not drawn) [SAG]
[1]; Ts65Dn mice
  Y maze performance (alternation, arm entrances; words): did not have an effect on either outcome in Ts65Dn mice; also recorded: does not improve Y maze performance in Ts65Dn mice
[1]; TsSAG mice (EuVeh 78%)
  Y maze alternation: 60%
[2]
  crossing of biological barriers: crosses the gut, the placenta, and the blood-brain barrier; also recorded: penetrates the blood-brain barrier
[3]
  tumor formation or complications: no evidence of tumor formation or obvious complications in the first 4 months of life
[4]; TsSAG, n=11
  NMDA/AMPA ratio: 0.19±0.034
[4]; [20]
  NMDA-EPSCs: partially rescues attenuated NMDA-EPSCs in hippocampal slices from Ts65Dn mice
[5]
  open-field performance (time in periphery or center): no significant differences were observed with TsSAG; also recorded: does not affect open-field performance
[6]
  mitogenic activity: had mitogenic activity in primary GCP cultures
[7]
  dentate gyrus deficit / proliferation at P6: Dentate gyrus is not affected by SAG treatment
[8]; TsSAG mice
  MWM search strategies: used the same successful strategies as EuVeh; also recorded: normalizes search strategies of Ts65Dn mice in the MWM
[8]; adult Ts65Dn mice, single SAG treatment at P0
  performance in MWM / tasks dependent on hippocampus: normalized performance of adult Ts65Dn mice in the MWM; also recorded: corrects performance of trisomic mice in tasks dependent on hippocampus
[8]; euploid mice
  MWM performance: had no effect on the performance of euploid mice
[9]; [20]
  TBS-LTP: rescues attenuated TBS-LTP in hippocampal slices from Ts65Dn mice
[9]; t=30 min
  TBS-induced LTP, fEPSP: 132.9±2.2 % of baseline
[9]; t=80 min
  TBS-induced LTP, fEPSP: 127.4±2.0 % of baseline
[10]; Ts65Dn mice, SAG subcutaneously on the day of birth
  GCP number at P6: normalized GCP number
[10]; adult (about 16 weeks) Ts65Dn mice, single injection of SAG on the day of birth
  cerebellar cross-sectional area at the midline and GC density: had the same cross-sectional area and GC density as EuVeh; also recorded: normalizes cerebellar morphology in adult Ts65Dn mice
[10]; euploid mice (EuSAG), single dose of SAG at P0
  GCP number at P6: did not significantly increase GCP number at P6
[11]; Ts65Dn mice, limited to lobule III, P=0.019
  depression of EPSC after induction of LTD: more depression of EPSC after the induction of LTD
[11]; euploid mice, lobule IX, P=0.005
  PPR values: significantly decreased the PPR values measured in lobule IX
[11]; trisomic mice, lobule III and IX
  EPSC paired-pulse ratios (PPR) of Purkinje cells: did not restore the PPR values in trisomic mice

## Cn1c(=O)c2[nH]cnc2n(C)c1=O [Theophylline, theophylline]
[12]; PIHH (27), mean ± SEM
  saliva sonic hedgehog after oral theophylline: 210 ± 12 pmol/mL
[12]; allergic rhinitis (26), mean ± SEM
  saliva sonic hedgehog after oral theophylline: 212 ± 14^+ pmol/ml
[12]; anesthesia induced (2)
  saliva sonic hedgehog after oral theophylline: 151 pmol/mL
[12]; congenital (10), mean ± SEM
  saliva sonic hedgehog after oral theophylline: 132 ± 23 pmol/mL
[12]; head injury (14), mean ± SEM
  saliva sonic hedgehog after oral theophylline: 115 ± 15 pmol/mL
[12]; [21]
  increase of saliva Shh levels by theophylline: ~2 fold
[12]; post radiation (1)
  saliva sonic hedgehog after oral theophylline: 145 pmol/mL
[12]; theophylline treated patients (81), mean ± SEM
  saliva sonic hedgehog: 102 ± 10 pmol/mL
[13]; PIHH patients (10), mean ± SEM
  sonic hedgehog concentration in nasal mucus, treatment with oral theophylline: 70735 ± 5751^a,a1 (10) pg/ml
[13]; all hyposmic patients (30 in Table 3, 31 in Table 4), mean ± SEM
  sonic hedgehog concentration in nasal mucus, treatment with oral theophylline: 49191 ± 1710^c,a1 (30) pg/ml and 49191 ± 1710^a (31) pg/ml
[13]; allergic rhinitis patients (11), mean ± SEM
  sonic hedgehog concentration in nasal mucus, treatment with oral theophylline: 24460 ± 2610^a,a1 (11) pg/ml
[13]; congenital smell loss patients (9), mean ± SEM
  sonic hedgehog concentration in nasal mucus, treatment with oral theophylline: 3825 ± 474^a,a1 (9) pg/ml
[13]; hyposmic men (17), oral theophylline 400-800 mg daily for 2-10 months, mean ± SEM
  sonic hedgehog concentration in nasal mucus, treatment with oral theophylline: 47952 ± 3085^a,a1 (17) pg/ml
[13]; hyposmic women (13), oral theophylline 400-800 mg daily for 2-10 months, mean ± SEM
  sonic hedgehog concentration in nasal mucus, treatment with oral theophylline: 3859 ± 303^a,a1 (13) pg/ml
[13]; men, oral theophylline
  increase of nasal mucus SHH over the untreated state: 320 times
[13]; patient post anesthesia, oral theophylline
  increase of nasal mucus SHH over the untreated state: 48 times
[13]; patients with PIHH, oral theophylline
  increase of nasal mucus SHH over the untreated state: 46 times
[13]; patients with allergic rhinitis, oral theophylline
  increase of nasal mucus SHH over the untreated state: over 719 times
[13]; patients with congenital smell loss, oral theophylline
  increase of nasal mucus SHH over the untreated state: over 21 times
[13]; patients with hyposmia, oral theophylline
  SHH levels in nasal mucus versus untreated state: significantly increased SHH levels in nasal mucus
[13]; post general anesthesia patient (1)
  sonic hedgehog concentration in nasal mucus, treatment with oral theophylline: 57 (1) pg/ml
[13]; women, oral theophylline
  increase of nasal mucus SHH over the untreated state: 17 times
[14]; [21]
  taste / gustometric function after theophylline: improved subjectively in taste function; also recorded: improved gustometric functions of treated patients
[14]; [22]
  HCl DT: 3.6 ± 0.2
  HCl ME: 54 ± 5
  HCl RT: 3.7 ± 0.3
  NaCl DT (detection threshold): 3.4 ± 0.2
  NaCl ME (magnitude estimation): 58 ± 5
  NaCl RT (recognition threshold): 3.6 ± 0.2
  sucrose DT: 3.3 ± 0.2
  sucrose ME: 49 ± 5
  sucrose RT: 3.6 ± 0.2
  urea DT: 3.9 ± 0.3
  urea ME: 54 ± 5
  urea RT: 3.9 ± 0.3
[15]; PIHH (10)
  smell improvement, patient number: 8
  smell improvement, percent of patients: 80%
[15]; all treated patients (31), oral theophylline
  smell improvement, patient number: 19
[15]; all treated patients, oral theophylline
  smell improvement, percent of patients: 60% and 61%
[15]; allergic rhinitis (11)
  smell improvement, patient number: 5
  smell improvement, percent of patients: 45%
[15]; congenital (9)
  smell improvement, patient number: 5
  smell improvement, percent of patients: 56%
[15]; post general anesthesia (1)
  smell improvement, patient number: 1
  smell improvement, percent of patients: 100%
[16]
  smell improvement, percent of patients: over 50%
[17]; hypogeusic patients after treatment (66), 200-1000 mg, 2-10 months
  saliva sonic hedgehog after treatment with oral theophylline: 199 ± 20 pmol/mL
[17]; men (61) after treatment
  saliva sonic hedgehog after treatment with oral theophylline: 180 ± 15 pmol/mL
[17]; [21]
  Shh in parotid saliva after oral theophylline: increased saliva Shh; also recorded: increased in parotid saliva to levels above those in normal subjects or in untreated patients
[17]; women (58) after treatment
  saliva sonic hedgehog after treatment with oral theophylline: 213 ± 33 pmol/mL
[18]; after oral theophylline
  patients with improvement in both subjective taste acuity and flavor perception: about 60%
[18]; all patients (79)
  flavor perception, improvement number: 45
  flavor perception, percent improved: 63%
  taste acuity, percent improved: 63%
  flavor perception, degree of improvement: 24 ± 4%
  taste acuity, degree of improvement: 28 ± 4^+ %
[18]; all patients (79), oral theophylline
  taste acuity, improvement number: 45
[18]; men (38)
  flavor perception, improvement number: 22
  flavor perception, percent improved: 58%
  taste acuity, improvement number: 21
  taste acuity, percent improved: 55%
  flavor perception, degree of improvement: 18 ± 4%
  taste acuity, degree of improvement: 20 ± 5%
[18]; [21]
  taste function after theophylline: improved both subjective taste function and gustometry
[18]; women (41)
  flavor perception, improvement number: 23
  flavor perception, percent improved: 54%
  taste acuity, improvement number: 24
  taste acuity, percent improved: 59%
  flavor perception, degree of improvement: 36 ± 6%
  taste acuity, degree of improvement: 35 ± 6%

## O=C1CCc2cc(OCCCCc3nnnn3C3CCCCC3)ccc2N1 [cilostazol]
[19]; Patient ID No. 7, 100 mg cilostazol once per day orally for 4 months
  sonic hedgehog levels in nasal mucus, mean: 769 pg/mL

## O=C(Nc1c(Cl)cncc1Cl)c1ccc(OC(F)F)c(OCC2CC2)c1 [roflumilast]
[19]; Patient ID No. 11, 500 micrograms daliresp (roflumilast) orally once per day for 4 months
  sonic hedgehog levels in nasal mucus: 6660 pg/mL
